Reference: US20260184675A1, “CHIRAL ISOMERIC SULFITE COMPOUND AND APPLICATION THEREOF” (Chengdu Hanova BioSciences Co., Ltd, priority 2024, published 2026)

Tests used:
[1] = test system: eggs of Harmonia axyridis; assay: Effect on hatching of eggs of Harmonia axyridis, egg card immersion; type: in vivo; settings: 100 ppm; for Number of hatched larvae 4 days after insecticide delivery, Replicate 1 / Number of hatched larvae 4 days after insecticide delivery, Replicate 2 / Number of hatched larvae 4 days after insecticide delivery, Replicate 3: Harmonia axyridis egg cards, immersed 30 seconds; for Hatching rate (%), Replicate 1 / Hatching rate (%), Replicate 2 / Hatching rate (%), Replicate 3: Harmonia axyridis eggs, 4 days after delivery
In short: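 Egg cards (~20 eggs each) dipped 30 s in 100 ppm insecticide, air dried and kept moist at 27° C; 5 cards per treatment, 3 replicates. Hatching assessed 4 days after treatment against pre-treatment egg counts, and control effect calculated by formula.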

[2] = test system: eggs of Tetranychus urticae; assay: Effect on hatching of eggs of Tetranychus urticae, leaf disc method; type: in vivo; settings: 5 ppm; for Hatching rate (%): 5 days after insecticide delivery
In short: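 Twenty adult female Tetranychus urticae mites were placed on 2.0 cm Vicia faba leaf discs over wetted filter paper in lidded dishes kept moist, and removed within 36 hours. Eggs on each disc were counted under a microscope. The egg-bearing discs were dipped for 10 seconds in a compound solution at 5 ppm or in clear water, then kept moist, and hatching was checked five days after treatment.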

eggs of Aleyrodidae = assay: Effect on hatching of eggs of Aleyrodidae, leaf disc method; type: in vivo; settings: Aleyrodidae eggs, 10 ppm; for Hatching rate (%), Replicate 1 / Hatching rate (%), Replicate 2 / Hatching rate (%), Replicate 3: 5 days after delivery; for Number of hatched larvae 5 days after insecticide delivery, Replicate 1 / Number of hatched larvae 5 days after insecticide delivery, Replicate 2 / Number of hatched larvae 5 days after insecticide delivery, Replicate 3: leaf disc
In short: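 Inhibition of Aleyrodidae egg hatching was tested with a leaf disc method at 10 ppm. Egg numbers on each disc were counted under a microscope before treatment. Discs bearing eggs were soaked for 10 seconds in clear water or test solution, removed, and kept under moist conditions. Hatching was checked five days after insecticide delivery and hatched larvae were counted.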

Magnaporthe grisea = type: cell-based; settings: 100 ppm; for Average antifungal rate (%) / Antifungal rate of Magnaporthe grisea (%), Replicate 1 / Antifungal rate of Magnaporthe grisea (%), Replicate 2 / Antifungal rate of Magnaporthe grisea (%), Replicate 3: 96-well plate; for Average antifungal rate (%): average of 3 replicates
eggs of Thrips = assay: Effect on hatching of eggs of Thrips, leaf disc method; type: in vivo; settings: 100 ppm; for Hatching rate (%): 5 days after insecticide delivery
In short: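 Thrip egg hatching was tested by the leaf disc method on Vicia faba discs 2.0 cm across, placed over wetted filter paper. Egg numbers on each disc were counted under a microscope before treatment. Discs were then dipped for 10 seconds in clean water or a compound solution at 100 ppm. They were kept moist under normal conditions, and hatching was surveyed five days after insecticide delivery.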

[3] = Replicate 1, listed as 19′-(S, R)
[4] = Replicate 2, listed as 19′-(S, R)
[5] = Replicate 3, listed as 19′-(S, R)

CC[C@@H](COS(=O)OCCF)Oc1ccc(Cl)cc1Cl (stereo partly drawn) [19′-(S,R)]
Number of hatched larvae 4 days after insecticide delivery, Replicate 1 ([1]; listed as 19′-(S, R)): 10
Number of hatched larvae 4 days after insecticide delivery, Replicate 2 ([1]; listed as 19′-(S, R)): 10
Number of hatched larvae 4 days after insecticide delivery, Replicate 3 ([1]; listed as 19′-(S, R)): 11
Hatching rate (%), Replicate 1 ([1]; listed as 19′-(S, R)): 10.42%
Hatching rate (%), Replicate 2 ([1]; listed as 19′-(S, R)): 9.35%
Hatching rate (%), Replicate 3 ([1]; listed as 19′-(S, R)): 9.82%
Hatching rate (%) [2, 3]: 10.81%
Hatching rate (%) [2, 4]: 11.49%
Number of hatched larvae 5 days after insecticide delivery [2, 3]: 12
Number of hatched larvae 5 days after insecticide delivery [2, 4]: 10
Hatching rate (%), Replicate 1 (eggs of Aleyrodidae; listed as 19′-(S, R)): 10.53%
Hatching rate (%), Replicate 2 (eggs of Aleyrodidae; listed as 19′-(S, R)): 10.24%
Hatching rate (%), Replicate 3 (eggs of Aleyrodidae; listed as 19′-(S, R)): 10.20%
Number of hatched larvae 5 days after insecticide delivery, Replicate 1 (eggs of Aleyrodidae; listed as 19′-(S, R)): 10
Number of hatched larvae 5 days after insecticide delivery, Replicate 2 (eggs of Aleyrodidae; listed as 19′-(S, R)): 13
Number of hatched larvae 5 days after insecticide delivery, Replicate 3 (eggs of Aleyrodidae; listed as 19′-(S, R)): 10
inhibitory rate against Magnaporthe grisea (in words) (Magnaporthe grisea): strong inhibitory rate
Average antifungal rate (%) (Magnaporthe grisea): 86.23%
Antifungal rate of Magnaporthe grisea (%), Replicate 1 (Magnaporthe grisea): 86.44%
Antifungal rate of Magnaporthe grisea (%), Replicate 2 (Magnaporthe grisea): 85.97%
Antifungal rate of Magnaporthe grisea (%), Replicate 3 (Magnaporthe grisea): 86.28%
Hatching rate (%) (eggs of Thrips; [3]): 9.40%
Hatching rate (%) (eggs of Thrips; [4]): 10.32%
Hatching rate (%) (eggs of Thrips; [5]): 9.52%
Number of hatched larvae 5 days after insecticide delivery (eggs of Thrips; [3]): 11
Number of hatched larvae 5 days after insecticide delivery (eggs of Thrips; [4]): 13
Number of hatched larvae 5 days after insecticide delivery (eggs of Thrips; [5]): 8

CC(C)(COS(=O)OCCF)Oc1ccc(Cl)cc1Cl (stereo not drawn) [R-10′]
Number of hatched larvae 4 days after insecticide delivery, Replicate 1 [1]: 17
Number of hatched larvae 4 days after insecticide delivery, Replicate 2 [1]: 14
Number of hatched larvae 4 days after insecticide delivery, Replicate 3 [1]: 12
Hatching rate (%), Replicate 1 [1]: 12.78%
Hatching rate (%), Replicate 2 [1]: 13.73%
Hatching rate (%), Replicate 3 [1]: 12.77%
Hatching rate (%) ([2]; Replicate 1): 17.72%
Hatching rate (%) ([2]; Replicate 2): 16.67%
Number of hatched larvae 5 days after insecticide delivery ([2]; Replicate 1): 14
Number of hatched larvae 5 days after insecticide delivery ([2]; Replicate 2): 16
Hatching rate (%), Replicate 1 (eggs of Aleyrodidae): 9.77%
Hatching rate (%), Replicate 2 (eggs of Aleyrodidae): 10.23%
Hatching rate (%), Replicate 3 (eggs of Aleyrodidae): 10.16%
Number of hatched larvae 5 days after insecticide delivery, Replicate 1 (eggs of Aleyrodidae): 13
Number of hatched larvae 5 days after insecticide delivery, Replicate 2 (eggs of Aleyrodidae): 9
Number of hatched larvae 5 days after insecticide delivery, Replicate 3 (eggs of Aleyrodidae): 13
inhibitory rate against Magnaporthe grisea (in words) (Magnaporthe grisea): strong inhibitory rate
Average antifungal rate (%) (Magnaporthe grisea): 82.60%
Antifungal rate of Magnaporthe grisea (%), Replicate 1 (Magnaporthe grisea): 82.71%
Antifungal rate of Magnaporthe grisea (%), Replicate 2 (Magnaporthe grisea): 81.95%
Antifungal rate of Magnaporthe grisea (%), Replicate 3 (Magnaporthe grisea): 83.14%
Hatching rate (%) (eggs of Thrips; Replicate 1): 13.93%
Hatching rate (%) (eggs of Thrips; Replicate 2): 15.05%
Hatching rate (%) (eggs of Thrips; Replicate 3): 13.97%
Number of hatched larvae 5 days after insecticide delivery (eggs of Thrips; Replicate 1): 17
Number of hatched larvae 5 days after insecticide delivery (eggs of Thrips; Replicate 2): 14
Number of hatched larvae 5 days after insecticide delivery (eggs of Thrips; Replicate 3): 19

CC(C)(COc1ccc(Cl)cc1Cl)OS(=O)OCCF (stereo not drawn) [Compound R-10]
Number of hatched larvae 4 days after insecticide delivery, Replicate 1 [1]: 15
Number of hatched larvae 4 days after insecticide delivery, Replicate 2 [1]: 10
Number of hatched larvae 4 days after insecticide delivery, Replicate 3 [1]: 13
Hatching rate (%), Replicate 1 [1]: 12.00%
Hatching rate (%), Replicate 2 [1]: 11.90%
Hatching rate (%), Replicate 3 [1]: 12.87%
Hatching rate (%) ([2]; Replicate 1): 18.06%
Hatching rate (%) ([2]; Replicate 2): 16.13%
Number of hatched larvae 5 days after insecticide delivery ([2]; Replicate 1): 13
Number of hatched larvae 5 days after insecticide delivery ([2]; Replicate 2): 15
Hatching rate (%), Replicate 1 (eggs of Aleyrodidae): 9.79%
Hatching rate (%), Replicate 2 (eggs of Aleyrodidae): 9.42%
Hatching rate (%), Replicate 3 (eggs of Aleyrodidae): 9.92%
Number of hatched larvae 5 days after insecticide delivery, Replicate 1 (eggs of Aleyrodidae): 14
Number of hatched larvae 5 days after insecticide delivery, Replicate 2 (eggs of Aleyrodidae): 13
Number of hatched larvae 5 days after insecticide delivery, Replicate 3 (eggs of Aleyrodidae): 12
inhibitory rate against Magnaporthe grisea (in words) (Magnaporthe grisea): strong inhibitory rate
Average antifungal rate (%) (Magnaporthe grisea): 82.52%
Antifungal rate of Magnaporthe grisea (%), Replicate 1 (Magnaporthe grisea): 81.97%
Antifungal rate of Magnaporthe grisea (%), Replicate 2 (Magnaporthe grisea): 83.68%
Antifungal rate of Magnaporthe grisea (%), Replicate 3 (Magnaporthe grisea): 81.92%
Hatching rate (%) (eggs of Thrips; Replicate 1): 15.31%
Hatching rate (%) (eggs of Thrips; Replicate 2): 14.50%
Hatching rate (%) (eggs of Thrips; Replicate 3): 14.53%
Number of hatched larvae 5 days after insecticide delivery (eggs of Thrips; Replicate 1): 15
Number of hatched larvae 5 days after insecticide delivery (eggs of Thrips; Replicate 2): 19
Number of hatched larvae 5 days after insecticide delivery (eggs of Thrips; Replicate 3): 17
